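Grown in 96-well plates, cells were treated for 48 hours with each compound at five concentrations. Insufficient inhibition: endpoint recorded as highest concentration tested. GI50 is the concentration that inhibits growth by half.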 Active and inactive are the calls of the source. No stated cut-off is given here; in the data, active = GI50 up to about 1.1 µM and inactive = higher.
Assays:
Assay in all cases: growth of human tumour cells (NCI), 48 h
[1] = tested on: BT-549
[2] = tested on: MDA-N
[3] = tested on: DMS-114
[4] = tested on: LXFL 529
[5] = tested on: M19-MEL
[6] = tested on: RXF 631
[7] = tested on: DLD-1
[8] = tested on: KM-20L2
[9] = tested on: XF498

SMILES	GI50 [1]	GI50 [2]	GI50 [3]	GI50 [4]	GI50 [5]	GI50 [6]	GI50 [7]	GI50 [8]	GI50 [9]
CCCCN1CSC(=S)N(Cc2ccccc2)C1	> 84.9 µM (inactive)	37.6 µM (inactive)	–	–	–	–	–	–	–
NC(=O)NNCc1ccccc1	> 100 µM (inactive)	> 100 µM (inactive)	–	–	–	–	–	–	–
O=C1C(c2ccc([N+](=O)[O-])cc2)=[N+]([O-])c2ccc([N+](=O)[O-])cc21	–	–	30.1 µM (inactive)	28.4 µM (inactive)	27.6 µM (inactive)	35.6 µM (inactive)	33.4 µM (inactive)	–	–
Brc1cccc(Nc2ncnc3sc4c(c23)CCC(Nc2cccc(Br)c2)C4)c1 (centres undefined)	> 100 µM (inactive)	> 100 µM (inactive)	–	–	–	–	–	–	–
CCN1C(=O)c2cc(OC)c(OC)cc2C(=O)C12OC(=O)c1cc3c(cc12)OCO3 (centres undefined)	> 100 µM (inactive)	> 100 µM (inactive)	–	–	–	–	–	–	–
Cc1nc2[nH]ncn2c(=O)c1CCO	–	> 10 µM (inactive)	–	–	–	–	–	–	–
CN(C)/N=N/c1ccc([N+](=O)[O-])cc1C(N)=O	–	–	> 100 µM (inactive)	–	> 100 µM (inactive)	–	> 100 µM (inactive)	> 100 µM (inactive)	> 100 µM (inactive)
N=C(NNS(=O)(=O)c1ccccc1)Oc1ccc(Cl)cc1	–	–	69.5 µM (inactive)	51.9 µM (inactive)	> 100 µM (inactive)	–	90.2 µM (inactive)	> 100 µM (inactive)	> 100 µM (inactive)
CN(NC(=O)c1cccs1)C1=NCCCN1	> 100 µM (inactive)	> 100 µM (inactive)	–	–	–	–	–	–	–
CC(C)(C)C(=O)OCC1OC(N=[N+]=[N-])C(OC(=O)C(C)(C)C)C(OC(=O)C(C)(C)C)C1OC(=O)C(C)(C)C (centres undefined)	–	–	> 100 µM (inactive)	> 100 µM (inactive)	–	–	> 100 µM (inactive)	> 100 µM (inactive)	> 100 µM (inactive)
O=C(O)/C(=C\c1ccncc1)c1cccc2ccccc12	> 100 µM (inactive)	> 100 µM (inactive)	–	–	–	–	–	–	–
COc1cc2c(cc1O)CCN[C@@]21CS[C@H]2c3c(OC(C)=O)c(C)c4c(c3C(COC1=O)N1C2C2NC(Cc3cc(C)c(OC)c(O)c32)[C@@H]1C#N)OCO4 (some centres undefined)	–	–	< 0.01 µM (active)	< 0.01 µM (active)	< 0.01 µM (active)	< 0.01 µM (active)	< 0.01 µM (active)	< 0.01 µM (active)	< 0.01 µM (active)
Cc1cc2oc3c(ccc(=O)n3C)c(=O)c2c(C)c1Cl	–	52.8 µM (inactive)	–	–	–	–	–	–	–
COC[C@@H](Cc1ccc(OC)c(OC)c1)[C@@H](COC)Cc1ccc(OC)c(OC)c1	–	–	56.5 µM (inactive)	81.7 µM (inactive)	> 100 µM (inactive)	–	> 100 µM (inactive)	> 100 µM (inactive)	> 100 µM (inactive)
O=c1[nH]c(=O)n(C/C=C/CBr)nc1Br	14.5 µM (inactive)	14.1 µM (inactive)	–	–	–	–	–	–	–
O=C(O)c1ccccc1/C=C1\Cc2ccc3c(c2C1=O)CCCC3	41 µM (inactive)	–	–	–	–	–	–	–	–
Nc1nnc(CCC(=O)Nc2cc(Cl)ccc2Cl)n1N	–	–	> 100 µM (inactive)	> 100 µM (inactive)	> 100 µM (inactive)	> 100 µM (inactive)	> 100 µM (inactive)	> 100 µM (inactive)	> 100 µM (inactive)
COc1cc(CCC(=O)O)c2cc3ccccc3cc2c1O	17.1 µM (inactive)	17.3 µM (inactive)	–	–	–	–	–	–	–
COc1ccc(CC2CCc3nc(N)nc(N)c3C2)cc1OC (centres undefined)	0.246 µM (active)	0.0507 µM (active)	–	–	–	–	–	–	–
CC(=O)/N=C1/N(/C=C2\C(=O)Oc3ccccc3C2=O)C(=O)/C(=C/c2ccc(NC(C)=O)cc2)N1C	–	> 100 µM (inactive)	–	–	–	–	–	–	–
CCOC1CC(=O)c2c(Br)sc(Br)c21 (centres undefined)	24.4 µM (inactive)	22.3 µM (inactive)	–	–	–	–	–	–	–
CC(C)(Br)C1(O)CCCN1C(=O)c1ccccc1 (centres undefined)	–	–	–	> 100 µM (inactive)	> 100 µM (inactive)	> 100 µM (inactive)	> 100 µM (inactive)	> 100 µM (inactive)	–

SMILES	GI50 [1]	GI50 [2]	GI50 [3]	GI50 [4]	GI50 [5]	GI50 [6]	GI50 [7]	GI50 [8]	GI50 [9]
COc1ccc([Se][Se]c2ccc(OC)cc2OC)c(OC)c1	–	–	2.01 µM (inactive)	2.1 µM (inactive)	2.03 µM (inactive)	6.31 µM (inactive)	3.3 µM (inactive)	–	1.94 µM (inactive)
C=COCCCOc1ccccc1	–	–	> 100 µM (inactive)	> 100 µM (inactive)	> 100 µM (inactive)	–	> 100 µM (inactive)	> 100 µM (inactive)	> 100 µM (inactive)
CCCn1cc2c3c(cccc31)C1C=C(C)CN(C)C1C2 (centres undefined)	–	–	15.1 µM (inactive)	–	–	–	20.7 µM (inactive)	13 µM (inactive)	–
O=c1[nH]nc(Cn2c3ccc(Br)cc3c3nc4ccccc4nc32)n1C1CCCCC1	42.3 µM (inactive)	75.3 µM (inactive)	–	–	–	–	–	–	–
COC(=O)/C=C/C(=O)C1C(C(=O)OC)C2(C(=O)OC)CCC1(C(=O)OC)N2 (centres undefined)	–	–	> 100 µM (inactive)	–	> 100 µM (inactive)	–	> 100 µM (inactive)	–	0.198 µM (active)
C=CS(=O)(=O)CCN1CC1	> 10 µM (inactive)	> 10 µM (inactive)	–	–	–	–	–	–	–
CC(=O)N(C(C)=O)n1nc2c(n1)C(=O)c1ccccc1C2=O	> 100 µM (inactive)	> 100 µM (inactive)	–	–	–	–	–	–	–
C/C(=N/NS(=O)(=O)c1ccc([N+](=O)[O-])cc1)c1cccc[n+]1[O-]	–	–	> 100 µM (inactive)	> 100 µM (inactive)	> 100 µM (inactive)	–	> 100 µM (inactive)	> 100 µM (inactive)	> 100 µM (inactive)
COC(=O)/C([Se]c1c(C)cc(C)cc1C)=C(\[Se]c1c(C)cc(C)cc1C)C(=O)OC	–	–	> 100 µM (inactive)	> 100 µM (inactive)	> 100 µM (inactive)	> 100 µM (inactive)	> 100 µM (inactive)	> 100 µM (inactive)	–
C=C1C(=O)O[C@@H]2[C@H]3O[C@]3(C)CCC=C(C)CC[C@@H]12	–	–	45.9 µM (inactive)	–	14.3 µM (inactive)	–	12.5 µM (inactive)	24.8 µM (inactive)	16.9 µM (inactive)
Cc1ccc(S(=O)(=O)n2cncc2CO)cc1	> 100 µM (inactive)	> 100 µM (inactive)	–	–	–	–	–	–	–
C=C(c1ccccc1)C1(O)CCCCC1N (centres undefined)	–	–	> 100 µM (inactive)	> 100 µM (inactive)	> 100 µM (inactive)	–	> 100 µM (inactive)	> 100 µM (inactive)	–
COc1cccc(/C=C/C(=O)N2CC(CCl)c3c2cc(N)c2ccccc32)c1 (centres undefined)	0.0122 µM (active)	0.0143 µM (active)	–	–	–	–	–	–	–
O=C(NNC(=O)c1nsc2ccccc12)c1ccc(Cl)cc1	–	–	> 10 µM (inactive)	19.7 µM (inactive)	20 µM (inactive)	–	–	19.8 µM (inactive)	–
O=C(O)c1cc(CCc2ccc(O)c(O)c2)ccc1O	> 100 µM (inactive)	18.4 µM (inactive)	–	–	–	–	–	–	–
CC(C)(C)OC(=O)NC1CCCC1=O (centres undefined)	–	–	–	> 100 µM (inactive)	> 100 µM (inactive)	> 100 µM (inactive)	> 100 µM (inactive)	> 100 µM (inactive)	> 100 µM (inactive)
Cc1c(N(Cc2ccccc2)Cc2ccccc2)nc(S(C)(=O)=O)nc1S(C)(=O)=O	–	–	1.82 µM (inactive)	1.91 µM (inactive)	1.54 µM (inactive)	–	1.87 µM (inactive)	1.74 µM (inactive)	1.73 µM (inactive)
OCc1cn(C(c2ccccc2)(c2ccccc2)c2ccccc2)cn1	–	> 100 µM (inactive)	–	–	–	–	–	–	–
CCCCNC1=C2C(=O)NN=C2CO1	–	–	> 100 µM (inactive)	39.8 µM (inactive)	> 100 µM (inactive)	> 100 µM (inactive)	> 100 µM (inactive)	> 100 µM (inactive)	> 100 µM (inactive)
Cc1ccc(S(=O)(=O)N2CCCSCC2)cc1	–	> 100 µM (inactive)	–	–	–	–	–	–	–
CCOc1c(/N=N/c2ccccc2Cl)c(-c2ccccc2)nn1C(=S)S	35.9 µM (inactive)	–	–	–	–	–	–	–	–
